Reference: patent US20260258004A1, “CRYSTALLINE FORMS OF (6S)-5-[4'-FLUORO-2-(TRIFLUOROMETHYL)BIPHENYL-4-YL]-6-METHYL-3,6- DIHYDRO-2H-l,3,4-OXADIAZIN-2-ONE” (Bayer Aktiengesellschaft, priority 2022, published 2026)

Legend:
[1] = Thermodynamic stability of the polymorphic forms; format: physicochemical; conditions: between 0° C. and 80° C.
[2] = Particle size distribution by laser diffraction (Malvern Panalytical Mastersizer 3000, Fraunhofer); format: physicochemical
Experimental: The particle size distribution was measured by laser diffraction using the Malvern Panalytical Mastersizer 3000.
The samples are again taken from example 1.6 (probe 1) and example 1.5 (probe 2), the same as used in example 4.
The sample to be analyzed is dispersed in 1 drop of Tween 80 the sample is processed according to ISO13320.
Laser diffraction is an often-used method for determination the particle size of dispersed solid materials. A widened laser beam illuminates a cuvette which contains part of the particles. By diffraction on the particles a characteristic pattern can be mapped on the detector. The resulting diffraction image is the additive overlaying of diffraction images of all particles.
Besides the mentioned detector two additional detectors are mounted in order to detect diffraction light in forward direction (FA1,9), in wide angle (LA1,2) and in back direction (BS1,2). The turbidity of the sample is measured by an extinction sensor. This is necessary to ensure a low particle concentration which is necessary to avoid wrong results by multiple diffraction of light at several particles.
The cuvette used was a wet unit where the suspension is pumped in a closed circuit with a dispersing unit that ensures a separation of single particles by shear forces.
The measurement range of the Malvern 3000 covers a particle size from 1 mm (2 mm) down to 20 nm
The calculation of the particle size distribution from the diffraction patterns was done on basis of theory of Fraunhofer.
This assumption is valid for particle sizes of 10 to 50 μm and above. For smaller particles the light scattering of the particle itself due to optical transparency must be considered which is done in the Mie-theory (not used for our probes). Precondition of the application of the Mie-theory is the knowledge of the refractive and absorption index of the dispersed solids.
Q3 is the cumulative volume distribution, e.g. D50=Q(50%) indicates 50% of the volume part of the sample is smaller than particle size of 50 μm.
The particle size is expressed as an equivalent diameter used in the method recommended by the Malvern Analysis Program and as described in ISO13320.

[3] = without ultrasound (US), listed as Probe 2

C[C@@H]1OC(=O)NN=C1c1ccc(-c2ccc(F)cc2)c(C(F)(F)F)c1 [polymorph C, (6S)-5-[4′-Fluoro-2-(trifluoromethyl)biphenyl-4-yl]-6-methyl-3,6-dihydro-2H-1,3,4-oxadiazin-2-one]
thermodynamic stability [1]: thermodynamically stable form
difference between Q3[50] of untreated sample and sample treated 300 s with ultrasound [2]: significantly smaller
D(10) ([2]; 300 s US, listed as Probe2): 14.5 μm
D(50) ([2]; 300 s US, listed as Probe2): 57.3 μm
D(90) ([2]; 300 s US, listed as Probe2): 170 μm
Cumulative volume distribution Q ([2]; particle size D 0.01 μm, 300 s US): 0%
Cumulative volume distribution Q ([2]; particle size D 0.01 μm, without US): 0%
Cumulative volume distribution Q ([2]; particle size D 0.0114 μm, 300 s US): 0%
Cumulative volume distribution Q ([2]; particle size D 0.0114 μm, without US): 0%
Cumulative volume distribution Q ([2]; particle size D 0.0129 μm, 300 s US): 0%
Cumulative volume distribution Q ([2]; particle size D 0.0129 μm, without US): 0%
Cumulative volume distribution Q ([2]; particle size D 0.0147 μm, 300 s US): 0%
Cumulative volume distribution Q ([2]; particle size D 0.0147 μm, without US): 0%
Cumulative volume distribution Q ([2]; particle size D 0.0167 μm, 300 s US): 0%
Cumulative volume distribution Q ([2]; particle size D 0.0167 μm, without US): 0%
Cumulative volume distribution Q ([2]; particle size D 0.0189 μm, 300 s US): 0%
Cumulative volume distribution Q ([2]; particle size D 0.0189 μm, without US): 0%
Cumulative volume distribution Q ([2]; particle size D 0.0215 μm, 300 s US): 0%
Cumulative volume distribution Q ([2]; particle size D 0.0215 μm, without US): 0%
Cumulative volume distribution Q ([2]; particle size D 0.0244 μm, 300 s US): 0%
Cumulative volume distribution Q ([2]; particle size D 0.0244 μm, without US): 0%
Cumulative volume distribution Q ([2]; particle size D 0.0278 μm, 300 s US): 0%
Cumulative volume distribution Q ([2]; particle size D 0.0278 μm, without US): 0%
Cumulative volume distribution Q ([2]; particle size D 0.0315 μm, 300 s US): 0%
Cumulative volume distribution Q ([2]; particle size D 0.0315 μm, without US): 0%
Cumulative volume distribution Q ([2]; particle size D 0.0358 μm, 300 s US): 0%
Cumulative volume distribution Q ([2]; particle size D 0.0358 μm, without US): 0%
Cumulative volume distribution Q ([2]; particle size D 0.0407 μm, 300 s US): 0%
Cumulative volume distribution Q ([2]; particle size D 0.0407 μm, without US): 0%
Cumulative volume distribution Q ([2]; particle size D 756 μm, 300 s US): 100%
Cumulative volume distribution Q ([2]; particle size D 756 μm, without US, listed as Probe 2): 99.65%
Cumulative volume distribution Q ([2]; particle size D 859 μm, 300 s US): 100%
Cumulative volume distribution Q ([2]; particle size D 859 μm, without US, listed as Probe 2): 99.9%
Cumulative volume distribution Q ([2]; particle size D 976 μm, 300 s US): 100%
Cumulative volume distribution Q ([2]; particle size D 976 μm, without US, listed as Probe 2): 100%
Cumulative volume distribution Q ([2]; particle size D 1110 μm, 300 s US): 100%
Cumulative volume distribution Q ([2]; particle size D 1110 μm, without US): 100%
Cumulative volume distribution Q ([2]; particle size D 1260 μm, 300 s US): 100%
Cumulative volume distribution Q ([2]; particle size D 1260 μm, without US): 100%
Cumulative volume distribution Q ([2]; particle size D 1430 μm, 300 s US): 100%
Cumulative volume distribution Q ([2]; particle size D 1430 μm, without US): 100%
Cumulative volume distribution Q ([2]; particle size D 1630 μm, 300 s US): 100%
Cumulative volume distribution Q ([2]; particle size D 1630 μm, without US): 100%
Cumulative volume distribution Q ([2]; particle size D 1850 μm, 300 s US): 100%
Cumulative volume distribution Q ([2]; particle size D 1850 μm, without US): 100%
Cumulative volume distribution Q ([2]; particle size D 2100 μm, 300 s US): 100%
Cumulative volume distribution Q ([2]; particle size D 2100 μm, without US): 100%
Cumulative volume distribution Q ([2]; particle size D 2390 μm, 300 s US): 100%
Cumulative volume distribution Q ([2]; particle size D 2390 μm, without US): 100%
Cumulative volume distribution Q ([2]; particle size D 2710 μm, 300 s US): 100%
Cumulative volume distribution Q ([2]; particle size D 2710 μm, without US): 100%
Cumulative volume distribution Q ([2]; particle size D 3080 μm, 300 s US): 100%
Cumulative volume distribution Q ([2]; particle size D 3080 μm, without US): 100%
Cumulative volume distribution Q ([2]; particle size D 3500 μm, 300 s US): 100%
Cumulative volume distribution Q ([2]; particle size D 3500 μm, without US): 100%
robustness of crystals ([2]; ultrasound treatment, compared to polymorph A): more robust
D(10) [2, 3]: 69.1 μm
D(50) [2, 3]: 179 μm
D(90) [2, 3]: 380 μm
